ChEMBL document CHEMBL4190212, “Synthesis, antiprotozoal activity, and chemoinformatic analysis of 2-(methylthio)-1H-benzimidazole-5-carboxamide derivatives: Identification of new selective giardicidal and trichomonicidal compounds” (Eur J Med Chem, 2017)

Columns and labels:
Entamoeba histolytica [1] = assay: Antiparasitic activity against trophozoite stage of Entamoeba histolytica HM-1:IMSS after 48 hrs by haemocytometric method; format: functional, organism-based
Entamoeba histolytica [2] = assay: Antiparasitic activity against trophozoite stage of Entamoeba histolytica HM-1:IMSS after 48 hrs; format: functional, organism-based
Trichomonas vaginalis = assay: Antiparasitic activity against trophozoite stage of Trichomonas vaginalis CNCD 147 after 48 hrs; format: functional, organism-based; details: CNCD 147, 48 h
Giardia intestinalis [3] = assay: Antiparasitic activity against trophozoite stage of Giardia intestinalis IMSS:0989:1 after 48 hrs; format: functional, organism-based; details: Giardia duodenalis, IMSS:0989:1, 48 h
Entamoeba histolytica [4] = assay: Potency index, ratio of metronidazole IC50 to test compound IC50 for trophozoite stage of Entamoeba histolytica HM-1:IMSS; format: functional
Giardia intestinalis [5] = assay: Potency index, ratio of metronidazole IC50 to test compound IC50 for trophozoite stage of Giardia intestinalis IMSS:0989:1; format: functional, Giardia duodenalis

SMILES	IC50 (Entamoeba histolytica [1]) [nM]	IC50 (Entamoeba histolytica [2]) [nM]	IC50 (Trichomonas vaginalis) [nM]	IC50 (Giardia intestinalis [3]) [nM]	Ratio IC50 (Entamoeba histolytica [4])	Ratio IC50 (Giardia intestinalis [5])
O=[N+]([O-])c1cc2nc(C(F)(F)F)[nH]c2cc1[N+](=O)[O-]	1550	–	–	–	–	–
FC(F)(F)C(F)(F)c1nc2c(Br)c(Br)c(Br)c(Br)c2[nH]1	229	–	–	–	–	–
FC(F)(F)c1nc2c(Br)c(Br)c(Br)cc2[nH]1	13800	–	–	–	–	–
FC(F)(F)c1nc2cc(Br)c(Br)cc2[nH]1	437	–	–	–	–	–
CSc1nc2cc(C(=O)Nc3cccc(C)n3)c(Cl)cc2n1C	–	41.8	28.8	15.8	–	–
CSc1nc2cc(C(=O)Nc3cccc(C)n3)c(Cl)cc2[nH]1	–	81.3	111	135	–	–
CSc1nc2cc(C(=O)Nc3ccccn3)c(Cl)cc2[nH]1	–	44	67.6	77	–	–
CSc1nc2cc(C(=O)Nc3ccc([N+](=O)[O-])cn3)c(Cl)cc2n1C	–	9.2	41	7.9	41	155
CSc1nc2cc(C(=O)Nc3ccccc3)c(Cl)cc2[nH]1	–	52	120	72.5	–	–
CSc1nc2cc(C(=O)Nc3ccccn3)c(Cl)cc2n1C	–	34.5	12	346	–	–
CSc1nc2cc(C(=O)NNC(=O)OC(C)(C)C)c(Cl)cc2n1C	–	48.5	28.3	56.6	–	–
CSc1nc2cc(C(=O)Nc3cccc(Cl)c3)c(Cl)cc2[nH]1	–	51	162	1110	–	–
CSc1nc2cc(C(=O)Nc3cccc(C)c3)c(Cl)cc2[nH]1	–	120	515	250	–	–
CSc1nc2cc(C(=O)Nc3cccc(Cl)n3)c(Cl)cc2n1C	–	40.8	368	12.2	–	–
CSc1nc2cc(C(=O)Nc3cccc(Cl)n3)c(Cl)cc2[nH]1	–	36.9	128	454	–	–
CSc1nc2cc(C(=O)N/N=C/c3ccc([N+](=O)[O-])o3)c(Cl)cc2n1C	–	26.6	13.2	29.2	–	–
